Experimental data as given in patent US11400107B2, “Cancer treatments” (NuCana plc, priority 2016, dated 2022).
Entries after “also recorded” stand apart in the source; their conditions may differ.

Test system: advance progressive cancers refractory to, or relapsed on, all conventional therapies
Assay: ProGem1 dose escalation clinical study of NUC-1031
Type: in vivo, human
Design: CA125 level: unit not given here
Source text: The following data were generated in clinical studies of NUC-1031 in human patients with advance progressive cancers that are refractory to, or have relapsed on, all conventional therapies that have been used to date. The results clearly illustrate the ability of NUC-1031 to successfully treat refractory cancers.
Although the primary objectives of the dose escalation part of the study were to determine the Recommended Phase II Dose (RP2D) and safety profile, secondary objectives included determining the PK profile, however effective treatment of patients with a range of refractory cancers has also been observed as part of this study.
A total of 68 patients have been entered into this dose escalation study, of which 49 were evaluable for clinical response in that they have received at least 2 Cycles of NUC-1031 and were therefore eligible for a RECIST 1.1 assessment.
NUC-1031 was administered as a 5 to 30 minute intravenous slow bolus injection. • Schedule A: NUC-1031 was administered on days 1, 8, 15 of a 4 weekly Cycle. • Schedule B: NUC-1031 was administered on days 1, 5, 8, 12, 15, 19, of a 4 weekly Cycle. Evaluable Patients [n=49]
Evaluable patients were patients that received ≥2 Cycles of NUC-1031 and were therefore eligible for a RECIST 1.1 assessment at the end of Cycle 2. Where the disease response duration, measured in months, is followed by a “+” this indicates ongoing disease control as of the latest cut-off date.

[1] = Patient 040, cholangiocarcinoma, 1,000 then 900 mg/m^2 weekly
[2] = Patient 041, breast cancer, 900 then 825 mg/m^2 weekly
[3] = Patient 043, ovarian cancer, 900 then 750 mg/m^2 weekly
[4] = Patient 044, lung cancer, 900 then 825 mg/m^2 weekly
[5] = Patient 046, adrenal carcinoma, 1,000, 900, 750, then 625 mg/m^2 weekly
[6] = Patient 048, ovarian cancer (granulosa cell tumour), 1,000 reduced stepwise to 625 mg/m^2 weekly
[7] = Patient 052 (204), oesophageal cancer, 900 then 825 mg/m^2 weekly
[8] = Patient 057 (209), ovarian cancer, 900, 825, then 750 mg/m^2 weekly
[9] = Patient 058 (210), lung cancer, 825 then 750 mg/m^2 weekly
[10] = Patient 059 (211), cervical cancer, 825, 750, then 625 mg/m^2 weekly
[11] = Patient 061 (213), colorectal cancer, 825 mg/m^2 weekly
[12] = Patient 063 (215), ovarian cancer, 825, 750, then 625 mg/m^2 weekly
[13] = evaluable patients n = 49, RECIST 1.1

SMILES: C[C@H](NP(=O)(OC[C@H]1O[C@@H](n2ccc(N)nc2=O)C(F)(F)[C@@H]1O)Oc1ccccc1)C(=O)OCc1ccccc1 (stereo partly drawn) [NUC-1031, 2′-deoxy-2′,2′-difluoro-D-cytidine-5′-O-[phenyl (benzoxy-L-alaninyl)] phosphate]
- Best response to RECIST [1]: Stable Disease
- Duration of response to RECIST [1]: 4 months
- Tumour volume (Patient 040, cholangiocarcinoma, end of Cycle 2 CT scan (85 at base)): 82.1
- CA19.9 level (Patient 040, cholangiocarcinoma, on 4th June (664 at baseline)): 155
- Adverse events (grade) (Patient 041, breast cancer, 900 mg/m^2 weekly, Cycle 3): fatigue (G3)
- Best response to RECIST [2]: Stable Disease
- Duration of response to RECIST [2]: 4 months
- CA 15.3 tumour marker (Patient 041, breast cancer, at C2 (726 at base)): 845
- CA 15.3 tumour marker (Patient 041, breast cancer, on 19 May 2014 (726 at base)): 824
- Best response to RECIST (Patient 042, cholangiocarcinoma, 900 mg/m^2 weekly): Progressive Disease
- Adverse events (grade) (Patient 042, cholangiocarcinoma, 900 mg/m^2 weekly, days 3-5 following study drug): delayed onset fatigue (G2)
- Reduction in tumour volume of primary target lesion (Patient 042, cholangiocarcinoma, end of Cycle 2 CT scan): 9%
- Adverse events (grade) [3]: delayed onset fatigue (G2); also recorded: Leg oedema developed to G3
- Best response to RECIST [3]: Stable Disease
- Duration of response to RECIST [3]: 13 months
- CA125 level (Patient 043, ovarian cancer, beginning of Cycle 2 (1.099 at baseline as printed)): 783
- Reduction in tumour volume from baseline (Patient 043, ovarian cancer, end of Cycle 6 CT scan): 10%
- CA125 level (Patient 043, ovarian cancer, on 15th July (1,099 at baseline)): 910
- Volume of fluid drained from the pleural effusion (Patient 043, ovarian cancer, on treatment (was 300 ml per week)): 150 ml per week
- Adverse events (grade) (Patient 044, lung cancer, 900 mg/m^2 weekly): G3 lung infection
- Best response to RECIST [4]: Stable Disease
- Duration of response to RECIST [4]: 5 months
- Reduction in tumour volume (Patient 044, lung cancer, end of Cycle 2 CT scan): 10%
- Best response to RECIST [5]: Stable Disease
- Duration of response to RECIST [5]: 11 months
- Adverse events (grade) (Patient 046, adrenal carcinoma, Cycle 1 at 1,000 mg/m^2, following Cycle 8 D1 at 900 mg/m^2): delayed onset fatigue, nausea and vomiting (all G3); also recorded: neutropenia (G2)
- Reduction in tumour volume from baseline (Patient 046, adrenal carcinoma, end of Cycle 6 CT scan): 12.6%
- Best response to RECIST [6]: Stable Disease
- Duration of response to RECIST [6]: 8 months
- inhibin B (Patient 048, ovarian cancer, August (1,038 prior to study entry)): 1148
- inhibin B (Patient 048, ovarian cancer, July 2014 (1,038 prior to study entry)): 1,106
- inhibin B (Patient 048, ovarian cancer, September (1,038 prior to study entry)): 1053
- Adverse events (grade) (Patient 048, ovarian cancer, following Cycle 1 Day 1 at 1,000 mg/m^2, neutropenia (G3) at Cycle 4): ALT, (G3, a DLT); also recorded: AST and neutropaenia (G2); also recorded: ALP (G1); also recorded: neutropenia (G3)
- Adverse events (grade) (Patient 050 (202), oesophageal cancer, 900 mg/m^2, following Cycle 1 Day 1): ALT and fatigue, both G3
- Best response to RECIST (Patient 050 (202), oesophageal cancer, 900 mg/m^2 weekly): Progressive Disease
- Best response to RECIST (Patient 051 (203), anal cancer, 900 mg/m^2 weekly): Progressive Disease
- Best response to RECIST [7]: Stable Disease
- Duration of response to RECIST [7]: 5 months
- Best response to RECIST (Patient 053 (205), colon cancer, 900 mg/m^2 weekly): Progressive Disease
- Best response to RECIST (Patient 055 (207), ovarian cancer, 900, 825, then 625 mg/m^2 weekly): Stable Disease
- CA125 level (Patient 055 (207), ovarian cancer, January 2015 (36 at baseline)): 24
- Reduction in tumour volume from baseline (Patient 055 (207), ovarian cancer, end of Cycle 6 CT scan): 18%
- Duration of response to RECIST (Patient 055 (207), ovarian cancer, ongoing, 900, 825, then 625 mg/m^2 weekly): ≥ 10 months
- Adverse events (grade) (Patient 057 (209), ovarian cancer, 900 mg/m^2, Cycle 1 Day 15): anaemia and ascites both G3
- Best response to RECIST [8]: Stable Disease
- Duration of response to RECIST [8]: 5 months
- Reduction in tumour volume from baseline (Patient 057 (209), ovarian cancer, end of Cycle 4 CT scan): 10%
- Adverse events (grade) (Patient 058 (210), lung cancer, 825 mg/m^2, Cycle 1): G3 transaminitis (ALT), a DLT
- Best response to RECIST [9]: Stable Disease
- Duration of response to RECIST [9]: 4 months
- Best response to RECIST [10]: Stable Disease
- Duration of response to RECIST [10]: 7 months
- Adverse events (grade) (Patient 059 (211), cervical cancer, thrombocytopenia in Cycle 1 at 825 mg/m^2, fatigue in Cycle 3 at 750 mg/m^2): thrombocytopenia (G3); also recorded: fatigue (G3)
- Best response to RECIST (Patient 060 (212), pancreatic cancer, 825 mg/m^2 weekly): Progressive Disease
- Adverse events (grade) (Patient 060 (212), pancreatic cancer, 825 mg/m^2 weekly, after Cycle 1): ALP, AST, ALT, all G3
- Best response to RECIST [11]: Stable Disease
- Duration of response to RECIST [11]: 3 months
- Reduction in tumour volume (Patient 061 (213), colorectal cancer, end of Cycle 2 CT scan): 2%
- Best response to RECIST [12]: Stable Disease
- Duration of response to RECIST [12]: 3 months
- Adverse events (grade) (Patient 063 (215), ovarian cancer, Cycle 3 at 750 mg/m^2): fatigue (G3)
- Best response to RECIST (Patient 064 (216), trophoblastic cancer, 825 mg/m^2 weekly): Progressive Disease
- Best response to RECIST (Patient 066 (218), colorectal cancer, 825, 750, then 625 mg/m^2 weekly): Stable Disease
- Duration of response to RECIST (Patient 066 (218), colorectal cancer, ongoing, 825, 750, then 625 mg/m^2 weekly): ≥ 8 months
- Reduction in tumour volume from baseline (Patient 066 (218), colorectal cancer, unscheduled CT scan on 30th December): 16%
- Adverse events (grade) (Patient 067 (219), osteosarcoma, 825 mg/m^2 weekly, towards the end of each Cycle): neutropenia G2
- Best response to RECIST (Patient 067 (219), osteosarcoma, 825 then 750 mg/m^2 weekly): Stable Disease
- Increase (tumour) from baseline (Patient 067 (219), osteosarcoma, EOS CT scan): 1%
- Duration of response to RECIST (Patient 067 (219), osteosarcoma, ongoing, 825 then 750 mg/m^2 weekly): ≥ 7 months
- Best response to RECIST (Patient 068 (220), lung cancer, 825 mg/m^2 weekly): Progressive Disease
- Best response to RECIST (Patient 069 (221), colorectal cancer, 825 reduced stepwise to 500 mg/m^2 weekly): Stable Disease
- Adverse events (grade) (Patient 069 (221), colorectal cancer, Cycle 3 at 825 mg/m^2, after Cycle 4 D1 at 750 mg/m^2, Cycle 5 at 675 mg/m^2): neutropenia (G4); also recorded: neutropenia and leukopenia, G3; also recorded: neutropenia and leukopenia, G2
- Response on PET scan (Patient 069 (221), colorectal cancer, PET scan on 30/10, 825 mg/m^2 weekly): Partial Response
- Reduction in tumour volume from baseline (Patient 069 (221), colorectal cancer, end of C2 CT scan): 11%
- Reduction in tumour volume from baseline (Patient 069 (221), colorectal cancer, end of C4 CT scan): 26%
- Duration of response to RECIST (Patient 069 (221), colorectal cancer, ongoing, 825 reduced stepwise to 500 mg/m^2 weekly): ≥ 7 months
- Best Overall Response: Partial Responses [13]: 5 (10%) patients (%)
- Best Overall Response: Progressive Disease [13]: 11 (22%) patients (%)
- Best Overall Response: Stable Disease [13]: 33 (67%) patients (%)
